# Reference: paper PMC10889159, “Synthesis and Antitumor Activity Evaluation of Novel Echinatin Derivatives with a 1,3,4-Oxadiazole Moiety” (International Journal of Molecular Sciences, 2024)
# What was measured:
# KU812 = experiment: CCK8 antiproliferative assay, KU812; type: cell-based; settings: Homo sapiens, CCK8, 48 h, mean ± SD, n = 3
# Method: (§1) For all biological assays, all of the synthesized compounds were dissolved in DMSO. The cytotoxicity of all of the target compounds against the HCT116, K562, KU812, and HT-29 cells was determined by an CCK8 assay in vitro using adriamycin and echinatin as the controls. About 3000 cells per well were seeded in a 96-well plate and incubated for 24 h. Then, the cells were stimulated with different concentrations of test compounds for 48 h. The CCK8 solution (100 µL 0.5 mg/mL^−1) was added to each well, and the cells were incubated for another 4 h. Then, the absorbance of the samples was measured at 450 nm. The IC50 values were calculated according to the Logit method after obtaining the inhibitory rate. All experiments were repeated three times.
# K562 = experiment: CCK8 antiproliferative assay, K562; type: cell-based; settings: Homo sapiens, CCK8, 48 h, mean ± SD, n = 3
# Method: as §1
# HCT116 = experiment: CCK8 antiproliferative assay, HCT116; type: cell-based; settings: Homo sapiens, HCT-116; CCK8, 48 h, mean ± SD, n = 3
# Method: as §1
# HT-29 = experiment: CCK8 antiproliferative assay, HT-29; type: cell-based; settings: Homo sapiens, CCK8, 48 h, mean ± SD, n = 3
# Method: as §1
# c-KIT = c-KIT (Homo sapiens, UniProt P10721); experiment: Biochemical c-KIT activity assay (ADP-Glo); settings: 20 μM ATP, read-out: IC50 for c-KIT inhibition
# Method: The enzymatic activities of c-KIT were determined by in vitro kinase assays using the ADP-Glo reagent (Promega, Madison, WI, USA) according to the manufacturer’s instructions. Briefly, 250 ng of c-KIT protein was incubated with compounds in 10 μL of reaction buffer (40 mM Tris−HCl, pH 7.4, 2 mM MnCl2, 2 mM DTT, 20 mM MgCl2, 0.1 mg/mL bovine serum albumin, 1 mM Na3VO4) containing 20 μΜ ATP and 40 μM poly (Glu4-Tyr1) as substrates at 30 °C for 150 min. The ADP-Glo reagent was then added, and the mixture was incubated at 25 °C for 40 min. The kinase detection reagent was added for another 30 min at 25 °C. The converted ADP was determined by luminescence measurement using a Wallac Vector 1420 multilabel counter (PerkinElmer).
# c-KIT, sequence (P10721 26-976): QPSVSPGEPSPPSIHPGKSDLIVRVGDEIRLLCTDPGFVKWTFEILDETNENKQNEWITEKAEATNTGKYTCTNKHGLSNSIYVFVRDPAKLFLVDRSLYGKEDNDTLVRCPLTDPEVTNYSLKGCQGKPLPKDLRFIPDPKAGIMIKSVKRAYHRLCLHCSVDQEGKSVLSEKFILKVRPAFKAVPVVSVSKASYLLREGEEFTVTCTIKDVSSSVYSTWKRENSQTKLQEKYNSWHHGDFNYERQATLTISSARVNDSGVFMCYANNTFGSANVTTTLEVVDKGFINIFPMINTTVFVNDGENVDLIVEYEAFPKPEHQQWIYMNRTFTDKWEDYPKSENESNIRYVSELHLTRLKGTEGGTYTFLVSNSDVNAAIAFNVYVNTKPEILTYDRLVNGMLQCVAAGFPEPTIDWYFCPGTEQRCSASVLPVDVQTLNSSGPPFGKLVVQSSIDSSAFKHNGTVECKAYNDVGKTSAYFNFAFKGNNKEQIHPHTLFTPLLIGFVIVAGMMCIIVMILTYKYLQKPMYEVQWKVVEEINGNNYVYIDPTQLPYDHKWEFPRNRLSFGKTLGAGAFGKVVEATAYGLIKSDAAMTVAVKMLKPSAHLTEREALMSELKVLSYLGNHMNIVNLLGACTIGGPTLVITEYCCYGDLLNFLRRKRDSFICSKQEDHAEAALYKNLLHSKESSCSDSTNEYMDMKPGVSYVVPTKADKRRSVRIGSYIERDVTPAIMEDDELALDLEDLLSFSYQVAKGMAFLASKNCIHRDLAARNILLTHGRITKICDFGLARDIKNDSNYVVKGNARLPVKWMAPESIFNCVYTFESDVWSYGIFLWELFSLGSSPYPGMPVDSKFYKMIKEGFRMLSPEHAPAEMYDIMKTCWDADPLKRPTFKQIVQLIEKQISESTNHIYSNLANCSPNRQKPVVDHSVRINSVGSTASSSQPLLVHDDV
Structure (SMILES),IC50 (KU812),IC50 (K562),IC50 (HCT116),IC50 (HT-29),melting point,IC50 (c-KIT)
"COc1cccc2c1C(=O)c1c(O)c3c(c(O)c1C2=O)C[C@@](O)(C(=O)CO)C[C@@H]3O[C@H]1C[C@H](N)[C@H](O)[C@H](C)O1 [Adriamycin, reference compound]",4.14 ± 0.53 µM,4.22 ± 0.44 µM,1.5 ± 0.19 µM,2.7 ± 0.71 µM,–,–
"COc1cc(O)ccc1/C=C/C(=O)c1ccc(OCc2nnc(Nc3ccc(Cl)cc3)o2)cc1 [Compound T7, (E)-1-{4-{{5-[(4-Chlorophenyl)amino]-1,3,4-oxadiazol-2-yl}methoxy}phenyl}-3-(4-hydroxy-2-methoxyphen-yl)propenone]",17.5 ± 1.77 µM,> 30 µM,2.08 ± 0.54 µM,> 30 µM,211.4 to 212.1 °C,–
"COc1cc(O)ccc1/C=C/C(=O)c1ccc(OCc2nnc(Nc3ccc(C)cc3C)o2)cc1 [Compound T15, (E)-1-{4-{{5-[(2,4-Dimethylphenyl)amino]-1,3,4-oxadiazol-2-yl}methoxy}phenyl}-3-(4-hydroxy-2-methoxy-phenyl)propenone]",> 30 µM,> 30 µM,> 30 µM,> 30 µM,192.9 to 194.1 °C,–
"FC(F)(F)c1ccc(CNc2ccc(Cc3c[nH]c4ncccc34)cn2)cc1 [PLX647, reference compound]",–,–,–,–,–,0.068 µM
"COc1cc(O)ccc1/C=C/C(=O)c1ccc(OCc2nnc(Nc3ccc(F)cc3F)o2)cc1 [Compound T16, (E)-1-{4-{{5-[(2,4-Difluorophenyl)amino]-1,3,4-oxadiazol-2-yl}methoxy}phenyl}-3-(4-hydroxy-2-methoxy-phenyl)propenone]",> 30 µM,> 30 µM,> 30 µM,> 30 µM,223.4 to 223.9 °C,–
"COc1cc(O)ccc1/C=C/C(=O)c1ccc(OCc2nnc(Nc3c(F)cccc3F)o2)cc1 [Compound T17, (E)-1-{4-{{5-[(2,6-Difluorophenyl)amino]-1,3,4-oxadiazol-2-yl}methoxy}phenyl}-3-(4-hydroxy-2-methoxy-phenyl)propenone]",> 30 µM,> 30 µM,> 30 µM,> 30 µM,193 to 194.3 °C,–
"COc1cc(O)ccc1/C=C/C(=O)c1ccc(OCc2nnc(Nc3cccc(C)c3)o2)cc1 [Compound T10, (E)-3-(4-Hydroxy-2-methoxyphenyl)-1-{4-{[5-(m-tolylamino)-1,3,4-oxadiazol-2-yl]methoxy}phenyl}propen-one]",> 30 µM,> 30 µM,7.62 ± 1.23 µM,> 30 µM,187.6 to 190.8 °C,–
COc1cc(O)ccc1/C=C/C(=O)c1ccc(OCc2nnc(Nc3ccc(OC(F)(F)F)cc3)o2)cc1 [Compound T5],12.45 ± 0.02 µM,> 30 µM,3.94 ± 0.33 µM,3.64 ± 0.21 µM,227.6 to 228.4 °C,–
COc1cc(O)ccc1/C=C/C(=O)c1ccc(OCc2nnc(Nc3ccc(C(C)(C)C)cc3)o2)cc1 [Compound T8],12 ± 1.28 µM,19.48 ± 0.12 µM,6.51 ± 0.19 µM,4.94 ± 0.25 µM,197.1 to 198.5 °C,0.613 µM
"COc1cc(O)ccc1/C=C/C(=O)c1ccc(OCc2nnc(Nc3ccc(F)cc3)o2)cc1 [Compound T6, (E)-1-{4-{{5-[(4-Fluorophenyl)amino]-1,3,4-oxadiazol-2-yl}methoxy}phenyl}-3-(4-hydroxy-2-methoxyphen-yl)propenone]",16.9 ± 1.58 µM,> 30 µM,4.39 ± 0.71 µM,> 30 µM,211.8 to 214.1 °C,–
"COc1ccc(Nc2nnc(COc3ccc(C(=O)/C=C/c4ccc(O)cc4OC)cc3)o2)cc1 [Compound T2, (E)-3-(4-Hydroxy-2-methoxyphenyl)-1-{4-{{5-[(4-methoxyphenyl)amino]-1,3,4-oxadiazol-2-yl}methoxy}phenyl}p-ropenone]",13.3 ± 0.39 µM,> 30 µM,3.97 ± 0.53 µM,8.78 ± 0.12 µM,212.6 to 213.6 °C,–
COc1cc(O)ccc1/C=C/C(=O)c1ccc(OCc2nnc(Nc3ccccc3C)o2)cc1 [Compound T9],> 30 µM,> 30 µM,10 ± 0.93 µM,> 30 µM,206.5 to 209.2 °C,–
CCOc1ccc(Nc2nnc(COc3ccc(C(=O)/C=C/c4ccc(O)cc4OC)cc3)o2)cc1 [Compound T3],17.2 ± 0.67 µM,15.5 ± 1.09 µM,2.47 ± 0.56 µM,5.16 ± 0.11 µM,200.1 to 200.4 °C,0.237 µM
"CCOc1ccccc1Nc1nnc(COc2ccc(C(=O)/C=C/c3ccc(O)cc3OC)cc2)o1 [Compound T11, (E)-1-{4-{{5-[(2-Ethoxyphenyl)amino]-1,3,4-oxadiazol-2-yl}methoxy}phenyl}-3-(4-hydroxy-2-methoxyphe-nyl)propenone]",> 30 µM,> 30 µM,> 30 µM,> 30 µM,175.4 to 188.3 °C,–
"COc1cc(O)ccc1/C=C/C(=O)c1ccc(OCc2nnc(Nc3cccc(Cl)c3)o2)cc1 [Compound T14, (E)-1-{4-{{5-[(3-Chlorophenyl)amino]-1,3,4-oxadiazol-2-yl}methoxy}phenyl}-3-(4-hydroxy-2-methoxyphen-yl)propenone]",> 30 µM,> 30 µM,9.83 ± 1.98 µM,13.2 ± 0.53 µM,225 to 225.9 °C,–
"COc1cc(O)ccc1/C=C/C(=O)c1ccc(OCc2nnc(Nc3ccccc3F)o2)cc1 [Compound T12, (E)-1-{4-{{5-[(2-Fluorophenyl)amino]-1,3,4-oxadiazol-2-yl}methoxy}phenyl}-3-(4-hydroxy-2-methoxyphen-yl)propenone]",> 30 µM,> 30 µM,6.14 ± 1.45 µM,12.8 ± 0.98 µM,186.2 to 187.4 °C,–
COc1cc(O)ccc1/C=C/C(=O)c1ccc(O)cc1 [Echinatin],13.8 ± 0.33 µM,> 30 µM,4.54 ± 0.76 µM,10.4 ± 0.87 µM,–,–
"COc1cc(O)ccc1/C=C/C(=O)c1ccc(OCc2nnc(Nc3ccc(C)cc3)o2)cc1 [Compound T1, (E)-3-(4-Hydroxy-2-methoxyphenyl)-1-{4-{[5-(p-tolylamino)-1,3,4-oxadiazol-2-yl]methoxy}phenyl}propen-one]",9.55 ± 0.17 µM,22.05 ± 0.12 µM,4.85 ± 0.32 µM,7.1 ± 0.45 µM,186.1 to 189.4 °C,–
"COc1cc(O)ccc1/C=C/C(=O)c1ccc(OCc2nnc(Nc3ccccc3Cl)o2)cc1 [Compound T13, (E)-1-{4-{{5-[(2-Chlorophenyl)amino]-1,3,4-oxadiazol-2-yl}methoxy}phenyl}-3-(4-hydroxy-2-methoxyphen-yl)propenone]",> 30 µM,> 30 µM,10.2 ± 0.87 µM,13.9 ± 0.67 µM,191.3 to 191.8 °C,–
"COc1cc(O)ccc1/C=C/C(=O)c1ccc(OCc2nnc(Nc3c(Cl)cccc3Cl)o2)cc1 [Compound T18, (E)-1-{4-{{5-[(2,6-Dichlorophenyl)amino]-1,3,4-oxadiazol-2-yl}methoxy}phenyl}-3-(4-hydroxy-2-methoxy-phenyl)propenone]",> 30 µM,> 30 µM,> 30 µM,> 30 µM,172.3 to 174.6 °C,–
